Test results as given in patent publication US6472418B1, “Non-peptide NK1 receptors antagonists” (Warner-Lambert Company, priority 1998, dated 2002).

Target: T1, Human NK1 Receptor (Homo sapiens, UniProt P25103)
T1 construct: endogenous in cells; host or cells: Human lymphoma IM9 cells (whole cells)
Test: In Vitro Human NK1 Receptor Binding Assay ([125I]Bolton-Hunter substance P displacement, IM9 cells)
Details: Table 4; [125I]Bolton-Hunter substance P displacement, human IM9 cells; read-out: IC50 (nM) hNK1
Method in brief: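 Test compounds competed with 0.05-0.1 nM [125I]Bolton-Hunter substance P for binding to intact IM9 cells over 50 min at 21° C, pH 7.4 buffer with MnCl2 and peptidase inhibitors. […] [Sar9, Met(O2)11] substance P gave non-specific binding. Bound counts were measured after filtration and fitted iteratively.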

T1 sequence (P25103 whole entry): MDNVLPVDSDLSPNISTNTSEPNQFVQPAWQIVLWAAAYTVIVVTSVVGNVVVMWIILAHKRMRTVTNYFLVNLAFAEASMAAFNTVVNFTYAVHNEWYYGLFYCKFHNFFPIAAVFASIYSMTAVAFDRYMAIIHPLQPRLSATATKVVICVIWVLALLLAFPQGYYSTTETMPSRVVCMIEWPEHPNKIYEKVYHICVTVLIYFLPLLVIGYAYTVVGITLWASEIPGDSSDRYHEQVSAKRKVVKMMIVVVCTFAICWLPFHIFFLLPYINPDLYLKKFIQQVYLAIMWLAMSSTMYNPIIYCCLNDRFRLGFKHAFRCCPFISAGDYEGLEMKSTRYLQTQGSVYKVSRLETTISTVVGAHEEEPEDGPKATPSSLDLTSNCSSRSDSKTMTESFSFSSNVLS

Row | IC50 [nM] | Compound
1 | 169 | CC(NC(=O)C(C)(Cc1c[nH]c2ccccc12)NCc1ccc2ccccc2c1)c1ccccc1 (stereo not shown) [compound 309, 3-(1H-Indol-3-yl)-2-methyl-2-[(naphthalen-2-ylmethyl)-amino]-N-(1-phenyl-ethyl)-propionamide]
2 | 3320 | CC(NC(=O)C(C)(Cc1c[nH]c2ccccc12)NCc1ccccn1)c1ccccc1 (stereo not shown) [compound 310, 3-(1H-Indol-3-yl)2-methyl-N-(1-phenyl-ethyl)-2-[(pyridin-2-ylmethyl)-amino]-propionamide]
3 | 88 | CC(NC(=O)C(C)(Cc1c[nH]c2ccccc12)NCc1ccc2ccccc2n1)c1ccccc1 (stereo not shown) [compound 311, 3-(1H-Indol-3-yl)-2-methyl-N-(1-phenyl-ethyl)-2-[(quinolin-2-ylmethyl)-amino]-propionamide]

Same assay, conditions: human NK1 receptor, IM9 cells, [125I]Bolton-Hunter substance P; read-out: IC50 (nM) hNK1

Row | Compound | IC50 [nM]
4 | CC(Cc1c[nH]c2ccccc12)(NCc1cc2ccccc2o1)C(=O)NCc1ccc(C(=O)O)cc1 (stereo not shown) [compound 171, 4-{[2-[(Benzofuran-2-ylmethyl)-amino]-3-(1H-indol-3-yl)-2-methyl-propionylamino]-methyl}-benzoic acid] | > 10000
5 | CC(Cc1c[nH]c2ccccc12)(NCc1cc2ccccc2o1)C(=O)NCCc1cccs1 (stereo not shown) [compound 172, 2-[(Benzofuran-2-ylmethyl)-amino]-3-(1H-indol-3-yl)-2-methyl-N-(2-thiophen-2-yl-ethyl)-propionamide] | 153
6 | CC(Cc1c[nH]c2ccccc12)(NCc1cc2ccccc2o1)C(=O)NCC(=O)N1CCOCC1 (stereo not shown) [compound 173, 2-[(Benzofuran-2-ylmethyl)-amino]-3-(1H-indol-3-yl)-2-methyl-N-(2-morpholin-4-yl-2-oxo-ethyl)-propionamide] | > 10000
7 | COC(=O)C(Cc1c[nH]cn1)NC(=O)C(C)(Cc1c[nH]c2ccccc12)NCc1cc2ccccc2o1 (stereo not shown) [compound 176, 2-[2-[(Benzofuran-2-ylmethyl)-amino]-3-(1H-indol-3-yl)-2-methyl-propionylamino]-3-(1H-imidazol-4-yl)-propionic acid methyl ester] | 1760
8 | CC(Cc1c[nH]c2ccccc12)(NCc1cc2ccccc2o1)C(=O)NCc1cnc(N)nc1N (stereo not shown) [compound 179, 2-[(Benzofuran-2-ylmethyl)-amino]-N-(2,4-diamino-pyrimidin-5-ylmethyl)-3-(1H-indol-3-yl)-2-methyl-propionamide] | 5920
9 | CC(Cc1c[nH]c2ccccc12)(NCc1cc2ccccc2o1)C(=O)NC(CO)Cc1c[nH]cn1 (stereo not shown) [compound 183, 2-[(Benzofuran-2-ylmethyl)-amino]-N-[1-hydroxymethyl-2-(1H-imidazol-4-yl)-ethyl]-3-(1H-indol-3-yl)-2-methyl-propionamide] | > 10000
10 | CC(Cc1c[nH]c2ccccc12)(NCc1cc2ccccc2o1)C(=O)NCC1CCCCC1O (stereo not shown) [compound 184, 2-[(Benzofuran-2-ylmethyl)-amino]-N-(2-hydroxy-cyclohexylmethyl)-3-(1H-indol-3-yl)-2-methyl-propionamide] | > 10000
11 | CC(Cc1c[nH]c2ccccc12)(NCc1cc2ccccc2o1)C(=O)NCCCN1CCOCC1 (stereo not shown) [compound 185, 2-[(Benzofuran-2-ylmethyl)-amino]-3-(1H-indol-3-yl)-2-methyl-N-(3-morpholin-4-yl-propyl)-propionamide] | > 10000

The next lines start with the values.

Row | IC50 [nM] | Compound
12 | 2380 | CC(Cc1c[nH]c2ccccc12)(NCc1cc2ccccc2o1)C(=O)NCc1cc(Br)ccc1O (stereo not shown) [compound 170, 2-[(Benzofuran-2-ylmethyl)-amino]-N-(5-bromo-2-hydroxy-benzyl)-3-(1H-indol-3-yl)-2-methyl-propionamide]
13 | 94 | CC(Cc1c[nH]c2ccccc12)(NCc1cc2ccccc2o1)C(=O)NCc1ccc2c(c1)OCO2 (stereo not shown) [compound 174, N-Benzo[1,3]dioxol-5-ylmethyl-2-[(benzofuran-2-ylmethyl)-amino]-3-(1H-indol-3-yl)-2-methyl-propionamide]
14 | 96 | CC(Cc1c[nH]c2ccccc12)(NCc1cc2ccccc2o1)C(=O)NCc1ccc(Cl)c(Cl)c1 (stereo not shown) [compound 175, 2-[(Benzofuran-2-ylmethyl)-amino]-N-(3,4-dichloro-benzyl)-3-(1H-indol-3-yl)-2-methyl-propionamide]
15 | 444 | CC(Cc1c[nH]c2ccccc12)(NCc1cc2ccccc2o1)C(=O)NCc1ccc(Cl)cc1F (stereo not shown) [compound 177, 2-[(Benzofuran-2-ylmethyl)-amino]-N-(4-chloro-2-fluoro-benzyl)-3-(1H-indol-3-yl)-2-methyl-propionamide]
16 | 1370 | CC(Cc1c[nH]c2ccccc12)(NCc1cc2ccccc2o1)C(=O)NCc1cccc(N)c1 (stereo not shown) [compound 178, N-(3-Amino-benzyl)-2-[(benzofuran-2-ylmethyl)-amino]-3-(1H-indol-3-yl)-2-methyl-propionamide]
17 | 266 | CC(Cc1c[nH]c2ccccc12)(NCc1cc2ccccc2o1)C(=O)NCc1ccccc1F (stereo not shown) [compound 180, 2-[(Benzofuran-2-ylmethyl)-amino]-N-(2-fluoro-benzyl)-3-(1H-indol-3-yl)-2-methyl-propionamide]
18 | 269 | CC(Cc1c[nH]c2ccccc12)(NCc1cc2ccccc2o1)C(=O)NCc1ccc(F)cc1F (stereo not shown) [compound 181, 2-[(Benzofuran-2-ylmethyl)-amino]-N-(2,4-difluoro-benzyl)-3-(1H-indol-3-yl)-2-methyl-propionamide]
19 | > 10000 | CC(Cc1c[nH]c2ccccc12)(NCc1cc2ccccc2o1)C(=O)NCc1ccc(O)c(O)c1 (stereo not shown) [compound 182, 2-[(Benzofuran-2-ylmethyl)-amino]-N-(3,4-dihydroxy-benzyl)-3-(1H-indol-3-yl)-2-methyl-propionamide]
20 | 84 | CC(Cc1c[nH]c2ccccc12)(NCc1cc2ccccc2o1)C(=O)NCc1ccccc1O (stereo not shown) [compound 186, 2-[(Benzofuran-2-ylmethyl)-amino]-N-(2-hydroxy-benzyl)-3-(1H-indol-3-yl)-2-methyl-propionamide]
21 | 131 | COc1ccc(CNC(=O)C(C)(Cc2c[nH]c3ccccc23)NCc2cc3ccccc3o2)cc1F (stereo not shown) [compound 187, 2-[(Benzofuran-2-ylmethyl)-amino]-N-(3-fluoro-4-methoxy-benzyl)-3-(1H-indol-3-yl)-2-methyl-propionamide]
22 | 2280 | COc1ccc(CNC(=O)C(C)(Cc2c[nH]c3ccccc23)NCc2cc3ccccc3o2)c(N)c1 (stereo not shown) [compound 188, N-(2-Amino-4-methoxy-benzyl)-2-[(benzofuran-2-ylmethyl)-amino]-3-(1H-indol-3-yl)-2-methyl-propionamide]
23 | 1130 | CC(Cc1c[nH]c2ccccc12)(NCc1cc2ccccc2o1)C(=O)NCc1ccccc1Cl (stereo not shown) [compound 189, 2-((Benzofuran-2-ylmethyl)-amino]-N-(2-chloro-benzyl)-3-(1H-indol-3-yl)-2-methyl-propionamide]
24 | 3540 | CC(Cc1c[nH]c2ccccc12)(NCc1cc2ccccc2o1)C(=O)NCc1c(F)cccc1F (stereo not shown) [compound 190, 2-[(Benzofuran-2-ylmethyl)-amino]-N-(2,6-difluoro-benzyl)-3-(1H-indol-3-yl)-2-methyl-propionamide]
25 | 55 | CC(Cc1c[nH]c2ccccc12)(NCc1cc2ccccc2o1)C(=O)NCc1ccc(F)c(Cl)c1 (stereo not shown) [compound 191, 2-[(Benzofuran-2-ylmethyl)-amino]-N-(3-chloro-4-fluoro-benzyl)-3-(1H-indol-3-yl)-2-methyl-propionamide]
